Source: patent publication US20220015404A1, “TRAUMATIC ACID COMPOSITIONS AND METHODS FOR TASTE MODULATION” (INTERNATIONAL FLAVORS & FRAGRANCES INC., priority 2018, published 2022)

What was measured:
Format in all cases: in vivo
[1] = Descriptive sensory evaluation in sugar water (4% sucrose in drinking water); details: 5 ppm in sugar water (4% sucrose in drinking water), vs base solution
Procedure: Sugar water (4% sucrose in drinking water) was prepared and used as a base solution. Different amounts of traumatic acid were added to the base solution and descriptive sensory evaluations were performed (Table 1).
Sugar water (4% sucrose in drinking water) was prepared and used as a base solution. Traumatic acid and 3-dodecenedioic acid were added to the base solution and descriptive sensory evaluations were performed (Table 2).

[2] = Descriptive sensory evaluation of traumatic acid in different applications
Procedure: Descriptive sensory evaluations were carried out using different amounts of traumatic acid in different applications.

[3] = Descriptive sensory evaluation in sweetened milk (2% fat milk with 2% sucrose); details: 2 ppm of each acid in sweetened milk (2% fat milk with 2% sucrose), vs base
Procedure: Sweetened milk (2% fat milk with 2% sucrose) was prepared and used as a base solution (“base”).

[4] = Comparison of sweetness and mouthfeel enhancement and off-flavor masking with analogs; details: 5 ppm, compared with mesaconic acid, glutaconic acid, trans-β-Hydromuconic acid, e-oct-4ene-1, 8-dioic acid

## O=C(O)CC=CCCCCCCCC(=O)O [3-Dodecenedioic acid, 3-dodecenedioic acid]
[1]
  Taste Evaluation: enhanced the sweetness and mouthfeel of sugar water

## O=C(O)/C=C/CCCCCCCCC(=O)O [Traumatic acid, traumatic acid]
[1]
  Taste Evaluation: enhanced the sweetness and mouthfeel of sugar water
[2]; 40 ppm in 3% Sugar + 0.05% Citric Acid Water Solution
  Taste Evaluation: Fatty and oily
[2]; 40 ppm in Water, vs same application without traumatic acid
  Taste Evaluation: Fatty and oily
[3]
  Taste Evaluation: increased sweetness and mouthfeel of sweetened milk
[4]
  sweetness and mouthfeel enhancement as well as off-flavor masking: exhibited the strongest and the longest-lasting effect

## O=C(O)CCCCCCCCC(=O)O [Sebacic Acid, sebacic acid]
[3]
  Taste Evaluation: increased sweetness and mouthfeel of sweetened milk
